Legend:
HIF-1α [1] = assay: Western blot of HIF-1α protein expression in primary cultured astrocytes; format: cell-based, Wistar suckling rats
Protocol: (§1) The astrocytes were inoculated into a six-well plate pre-coated with polylysine at a density of 1.5×10^5/ml. In order to detect the activation of HIF-1α and HIF-2α by 6-OHDA and the corresponding protein expression of DMT1 and FPN1, the cells were divided into groups and treated with drugs. After being treated with 10 μM of 6-OHDA for 24 h, the cells were collected to extract the total protein.
(§2) In order to test the influence of inhibiting the activation of HIF-1α on the protein expression of DMT1 and FPN1 in the astrocytes, the cells were pre-treated with 10 μM of Bay87-2243 for 48 h, and then added with 10 μM of 6-OHDA for co-action for 24 h. Then the total protein was extracted.
(§3) The activation and inhibition of HIF-1α and HIF-2α by 6-OHDA and the corresponding protein expression of DMT1 and FPN1 were detected by Western blots.
(§4) After drug treatment of the cells, the medium was completely blotted up, the cells were washed with pre-chilled PBS for three times, and 100 μl of the cell lysis buffer: RIPA lysis buffer (strong) was added to each well, and the cells were lysed on ice for 0.5 h.
(§5) The concentration of the extracted protein was detected by the BCA protein quantitative kit. The protein was sub-packaged according to 30 μg per serving, brought to the same volume with 0.01M PBS, then added with a 4× loading buffer and mixed well, subjected to a water batch above 95° C. for 5 min to denature the protein, and cryopreserved in the refrigerator at −80° C.
(§6) The corresponding primary antibodies were diluted with 5% skim milk: HIF-1α was diluted at 1:1000, HIF-2α was diluted at 1:1000, DMT1 was diluted at 1:800, FPN1 was diluted at 1:800, β-actin was diluted at 1:10000, and incubated in the shaker at 4° C. overnight. It was rinsed with the 1×TBST buffer for 3 times, each time for 10 min.
(§7) The intensity of bands was subjected to density analysis with the Vision Works LS image acquisition and analysis software.

DMT1 = assay: Western blot of DMT1 protein expression in primary cultured astrocytes; format: cell-based, Wistar suckling rats
Protocol: as §1
as §2, with “HIF-2α” for “HIF-1α”, “the HIF-2α translation inhibitor” for “Bay87-2243”, “24” for “48”
as §2, §3, §4, §5, §6, §7

FPN1 = assay: Western blot of FPN1 protein expression in primary cultured astrocytes; format: cell-based, Wistar suckling rats
Protocol: as §1
as §2, with “HIF-2α” for “HIF-1α”, “the HIF-2α translation inhibitor” for “Bay87-2243”, “24” for “48”
as §2, §3, §4, §5, §6, §7

HIF-2α [2] = assay: Western blot of HIF-2α protein expression in primary cultured astrocytes; format: cell-based
Protocol: as §1
as §2, with “HIF-2α” for “HIF-1α”, “the HIF-2α translation inhibitor” for “Bay87-2243”, “24” for “48”
as §3, §4, §5, §6, §7

HIF-1α [3] = assay: Western blot of HIF-1α protein expression in primary cultured VM neurons; format: cell-based, Wistar mice; conditions: 10 μM 6-OHDA for 24 h, compared to control
Protocol: (§8) In order to detect the activation of HIF-1α and HIF-2α in the VM neurons by 6-OHDA, the cells were divided into groups and treated with drugs. After being treated with 10 μM of 6-OHDA for 24 h, the cells were collected to extract the total protein.
as §4, §5, §6, §7

HIF-2α [4] = assay: Western blot of HIF-2α protein expression in primary cultured VM neurons; format: cell-based, Wistar mice; conditions: 10 μM 6-OHDA for 24 h, compared to control
Protocol: as §8, §4, §5, §6, §7

[5] = test system: primary cultured astrocytes; assay: Calcein fluorescence ferrous iron influx (transport-in) assay; format: cell-based, Wistar suckling mice; conditions: 1 mM ferrous iron perfusion
Protocol: (§9) The primary-cultured astrocytes were plated at a plating density of 5×10^4/well in a 24-well plate with a polylysine-treated cover slip placed in each well. After the astrocytes were cultured for 48 h, the medium was blotted up, and the cells were rinsed gently with the DMEM/F12 basic medium preheated at 37° C. The cells were then treated in groups with 6 wells in each group, and were continually cultured in a 5% CO2 incubator at 37° C. for 24 h. The medium was blotted up. The cells were rinsed once with HBS preheated at 37° C., added with calcein (0.5 μM), placed in an incubator at 37° C. for 0.5 h for loading, then rinsed with HBS for three times, and then detected.
Calcein-AM was a membrane-permeable non-fluorescent molecule. […] Calcein had high affinity for all of divalent metal ions, and could be combined with various divalent metal ions in the cells and then converted into non-fluorescent substances, which leads to the quenching of the fluorescence. In this experimental system, other divalent metal ions such as Mg^2+ and Ca^2+ were removed, and only a Fe^2+ solution was used for perfusion to ensure that the fluorescence change of intracellular calcein was caused by its binding with Fe^2+. The level of cheatable iron in the cells was estimated by determining the decrease degree of the fluorescence intensity. […]

[6] = test system: primary cultured astrocytes; assay: Calcein fluorescence iron efflux (transport-out) assay with DFO perfusion; format: cell-based, Wistar suckling rats; conditions: 1 mM DFO perfusion
Protocol: as §9
Calcein-AM was a membrane-permeable non-fluorescent molecule. […] Calcein had high affinity for all of divalent metal ions, and could be combined with various divalent metal ions in the cells and then converted into non-fluorescent substances, which leads to the quenching of the fluorescence. […] The level of cheatable iron in the cells was estimated by determining the decrease degree of the fluorescence intensity. The fluorescence intensity of calcein was inversely proportional to the content of free iron in the cells. When the level of iron in the cells was increased, the free iron combined with calcein, the fluorescence was quenched, and thus the fluorescence intensity was decreased, otherwise it was increased. […]

[7] = astrocytes treated with 10 μM BAY 87-2243 alone, compared with control group
[8] = astrocytes, 10 μM BAY 87-2243 pretreatment 48 h then 10 μM 6-OHDA 24 h, compared to 6-OHDA group
[9] = primary cultured astrocytes, 10 μM 6-OHDA for 24 h, compared with control
[10] = astrocytes, 10 μM 6-OHDA for 24 h, compared with control group
[11] = astrocytes treated with 10 μM HIF-2α inhibitor alone, compared to control group
[12] = astrocytes, 10 μM HIF-2α inhibitor pretreatment 24 h then 10 μM 6-OHDA 24 h, compared with 6-OHDA group
[13] = pretreatment with 10 μM HIF-2α inhibitor for 24 h, 10 μM 6-OHDA

Question: What does the source list for Cc1cc(-c2nc(-c3ccc(OC(F)(F)F)cc3)no2)nn1Cc1ccnc(N2CCN(C3CC3)CC2)c1 [BAY 87-2243]?
Answer: expression of HIF-1α (HIF-1α [1]; [7]): decreased; expression of HIF-1α (HIF-1α [1]; astrocytes, 10 μM BAY 87-2243 pretreatment 48 h then co-treatment with 10 μM 6-OHDA 24 h, compared with 6-OHDA group): decreased; expression of DMT1 (DMT1; [7]): remained unchanged; expression of DMT1 (DMT1; [8]): did not change; expression of FPN1 (FPN1; [7]): remained unchanged; expression of FPN1 (FPN1; [8]): did not change

Question: Which “expression of HIF-1α” value (HIF-1α [1]; [9]) does the source give for NCCc1cc(O)c(O)cc1O [6-OHDA, 6-hydroxydopamine] here?
Answer: Its value is “increased”.

Question: What about the “expression of HIF-2α” value (HIF-2α [2]; [9]) of the same molecule?
Answer: Its value is “increased”.

Question: And the “protein level of HIF-1α” value (HIF-1α [3])?
Answer: Its value is “remained unchanged”.

Question: And the “protein level of HIF-2α” value (HIF-2α [4])?
Answer: The value was “remained unchanged”.

Question: And the “expression of DMT1” value (DMT1; [10])?
Answer: Its value is “increased”.

Question: And the “expression of FPN1” value (FPN1; [10])?
Answer: The value was “increased”.

Question: And the “ferrous iron influx (calcein fluorescence quenching)” value ([5]; cells treated with 10 μM 6-OHDA, compared with controls)?
Answer: The value was “more rapid fluorescence quenching”.

Question: And the “iron efflux (calcein fluorescence intensity)” value ([6]; 10 μM 6-OHDA-treated group)?
Answer: The value was “marked increase in fluorescence intensity”.

Question: Which results are given for COC(=O)c1sccc1N/N=C(\C#N)S(C)(=O)=O [HIF-2α inhibitor]?
Answer: expression of HIF-2α (HIF-2α [2]; astrocytes treated with 10 μM HIF-2α inhibitor alone, compared with control group): decreased; expression of HIF-2α (HIF-2α [2]; astrocytes, 10 μM HIF-2α inhibitor pretreatment 24 h then co-treatment with 10 μM 6-OHDA 24 h, compared with 6-OHDA group): decreased; expression of DMT1 (DMT1; [11]): decreased; expression of DMT1 (DMT1; [12]): decreased; expression of FPN1 (FPN1; [11]): decreased; expression of FPN1 (FPN1; [12]): decreased; effect on 6-OHDA-increased ferrous iron influx (calcein fluorescence) [5, 13]: fully blocked; effect on 6-OHDA-caused ferrous iron efflux (calcein fluorescence) [6, 13]: fully blocked

Source: patent US20210137992A1, “HYPOXIA-INDUCIBLE FACTOR-2A AS A TARGET IN PREVENTION/TREATMENT OF PARKINSON'S DISEASE” (QIngdao University, priority 2019, published 2021)
